In US11918582B2 (RAPT Therapeutics, Inc., priority 2021, dated 2024):
Where a name gives a salt, the structure may show the parent alone.

Target: T1, human HPK1 (MAP4K1) (Homo sapiens, UniProt Q92918)
T1 construct: Recombinant human HPK1 kinase domain was obtained from ThermoFisher (Cat. #PV6357) and SignalChem (Cat. #M23-11G); purchased ThermoFisher; SignalChem PV6357; M23-11G
T1 sequence (Q92918 17-274 limits assumed): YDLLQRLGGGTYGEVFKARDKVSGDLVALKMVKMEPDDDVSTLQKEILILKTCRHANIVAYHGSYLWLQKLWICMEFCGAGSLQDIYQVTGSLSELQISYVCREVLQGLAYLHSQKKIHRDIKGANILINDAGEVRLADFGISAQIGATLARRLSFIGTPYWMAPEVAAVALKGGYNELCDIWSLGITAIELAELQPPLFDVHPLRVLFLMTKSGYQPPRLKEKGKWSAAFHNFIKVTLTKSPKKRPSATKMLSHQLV
Test: Biochemical assay for activity against HPK1 (ADP-Glo, MBP substrate)
Details: recombinant human HPK1 kinase domain, 1 nM enzyme, ADP-Glo luminescence
Procedure, shortened: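 IC50s come from ADP-Glo luminescence after a 2 h room-temperature reaction phosphorylating MBP in the presence of ATP. Compound was first preincubated 15 min with 1 nM HPK1 kinase domain, human recombinant. Buffer: 50 mM HEPES pH 7.5, 150 mM NaCl, 3 mM TCEP, 10 mM MgCl2, 0.005% Tween-20, 0.01% BSA.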

Structure (SMILES)	IC50 [µM]
COc1cc2c(cc1Nc1ncc3cnn(C[C@@H]4[C@H]5C[C@H]5CN4C(C)=O)c3n1)CN(C)CC2 [Example 220, 1-[(1S,2S,5R)-2-[[6-[(6-methoxy-2-methyl-3,4-dihydro-1H-isoquinolin-7-yl)amino]pyrazolo[3,4-d]pyrimidin-1-yl]methyl]-3-azabicyclo[3.1.0]hexan-3-yl]ethanone]	< 0.1
COc1cc2c(cc1Nc1ncc3cnn(C4CCN(S(C)(=O)=O)CC4)c3n1)CN(C)CC2 [Example 105, 6-methoxy-2-methyl-N-(1-(1-(methylsulfonyl)piperidin-4-yl)-1H-pyrazolo[3,4-d]pyrimidin-6-yl)-1,2,3,4-tetrahydroisoquinolin-7-amine]	< 0.1
COc1cc2c(cc1Nc1ncc3cnn([C@H]4CCC[C@H](C(N)=O)C4)c3n1)CN(C)CC2 [Example 31, (1S,3S)-3-(6-((6-methoxy-2-methyl-1,2,3,4-tetrahydroisoquinolin-7-yl)amino)-1H-pyrazolo[3,4-d]pyrimidin-1-yl)cyclohexane-1-carboxamide]	< 0.1
COc1cc2c(cc1Nc1ncc3cnn(CCC(N)=O)c3n1)CN(C)CC2 [Example 86, 3-[6-[(6-methoxy-2-methyl-3,4-dihydro-1H-isoquinolin-7-yl)amino]pyrazolo[3,4-d]pyrimidin-1-yl]210ropenamide]	< 0.1
COc1cc2c(cc1Nc1ncc3cnn(C[C@@H]4CCCN4S(N)(=O)=O)c3n1)CN(C)CC2 [Example 190, (S)-2-((6-((6-methoxy-2-methyl-1,2,3,4-tetrahydroisoquinolin-7-yl)amino)-1H-pyrazolo[3,4-d]pyrimidin-1-yl)methyl)pyrrolidine-1-sulfonamide hydrochloride]	< 0.1
CCC1CCCCC1n1ncc2cnc(Nc3cc4c(cc3OC)CCN(C)C4)nc21 (centres unmarked) [Example 25, N-(1-(2-ethylcyclohexyl)-1H-pyrazolo[3,4-d]pyrimidin-6-yl)-6-methoxy-2-methyl-1,2,3,4-tetrahydroisoquinolin-7-amine]	< 0.1
COc1cc2c(cc1Nc1ncc3cnn([C@@H]4CC[C@H]5CN(C(C)=O)[C@H]54)c3n1)CN(C)CC2 [Example 209, 1-((1S,4R,5R)-4-(6-((6-methoxy-2-methyl-1,2,3,4-tetrahydroisoquinolin-7-yl)amino)-1H-pyrazolo[3,4-d]pyrimidin-1-yl)-6-azabicyclo[3.2.0]heptan-6-yl)ethan-1-one]	< 0.1
COc1cc2c(cc1Nc1ncc3cnn([C@H]4C[C@H](CNC(C)=O)C4)c3n1)CN(C)CC2 [Example 122, N-((trans-3-(6-((6-methoxy-2-methyl-1,2,3,4-tetrahydroisoquinolin-7-yl)amino)-1H-pyrazolo[3,4-d]pyrimidin-1-yl)cyclobutyl)methyl)acetamide 2,2,2-trifluoroacetate]	< 0.1
COc1cc2c(cc1Nc1ncc3cnn(C[C@@H]4CCCC[C@H]4CO)c3n1)CN(C)CC2 (racemic) [Example 165, [rac-trans-2-[[6-[(6-methoxy-2-methyl-3,4-dihydro-1H-isoquinolin-7-yl)amino]pyrazolo[3,4-d]pyrimidin-1-yl]methyl]cyclohexyl]methanol]	< 0.1
COc1cc2c(cc1Nc1ncc3cnn(C[C@@H]4[C@@H](C)CCN4C(C)=O)c3n1)CN(CCO)CC2 [Example 223, 1-((2S,3S)-2-((6-((2-(2-hydroxyethyl)-6-methoxy-1,2,3,4-tetrahydroisoquinolin-7-yl)amino)-1H-pyrazolo[3,4-d]pyrimidin-1-yl)methyl)-3-methylpyrrolidin-1-yl)ethan-1-one]	< 0.1
CNC(=O)[C@@H]1CCC[C@@H](n2ncc3cnc(Nc4cc5c(cc4OC)CCN(C)C5)nc32)C1 [Example 53, (1R,3R)-3-(6-((6-methoxy-2-methyl-1,2,3,4-tetrahydroisoquinolin-7-yl)amino)-1H-pyrazolo[3,4-d]pyrimidin-1-yl)-N-methylcyclohexane-1-carboxamide]	< 0.1
COc1cc2c(cc1Nc1ncc3cnn(C[C@@H]4[C@@H](C)[C@H](F)CN4C(C)=O)c3n1)CN(C)CC2 [Example 191, 1-((2S,3R,4S)-4-fluoro-2-((6-((6-methoxy-2-methyl-1,2,3,4-tetrahydroisoquinolin-7-yl)amino)-1H-pyrazolo[3,4-d]pyrimidin-1-yl)methyl)-3-methylpyrrolidin-1-yl)ethan-1-one]	< 0.1
COc1cc2c(cc1Nc1ncc3cnn([C@H]4CC[C@@H](C(=O)O)CC4)c3n1)CN(C)CC2 [Example 26, (1s,4s)-4-(6-((6-methoxy-2-methyl-1,2,3,4-tetrahydroisoquinolin-7-yl)amino)-1H-pyrazolo[3,4-d]pyrimidin-1-yl)cyclohexane-1-carboxylic acid]	< 0.1
CCN1CCc2cc(OC)c(Nc3ncc4cnn([C@H]5CC[C@H](O)CC5)c4n3)cc2C1 [Example 155, trans-4-(6-((2-ethyl-6-methoxy-1,2,3,4-tetrahydroisoquinolin-7-yl)amino)-1H-pyrazolo[3,4-d]pyrimidin-1-yl)cyclohexan-1-ol]	< 0.1
COc1nc2c(cc1Nc1ncc3cnn(C[C@@H]4CC[C@@H](C)N4C(C)=O)c3n1)CN(C)CC2 [Example 173, 1-[(2S,5R)-2-[[6-[(2-methoxy-6-methyl-7,8-dihydro-5H-1,6-naphthyridin-3-yl)amino]pyrazolo[3,4-d]pyrimidin-1-yl]methyl]-5-methyl-pyrrolidin-1-yl]ethenone Methanesulfonic Acid]	< 0.1

Continued, values first:

IC50 [µM]	Structure (SMILES)
< 0.1	COc1cc2c(cc1Nc1ncc3c(C)nn([C@H]4CC[C@@H](C(N)=O)CC4)c3n1)CN(C)CC2 [Example 51, (cis)-4-(6-((6-methoxy-2-methyl-1,2,3,4-tetrahydroisoquinolin-7-yl)amino)-3-methyl-1H-pyrazolo[3,4-d]pyrimidin-1-yl)cyclohexane-1-carboxamide]
< 0.1	CN1CCc2c(cc(Nc3ncc4cnn([C@H]5CC[C@H](CO)CC5)c4n3)cc2C(F)(F)F)C1 [Example 57, ((1r,4r)-4-(6-((2-methyl-5-(trifluoromethyl)-1,2,3,4-tetrahydroisoquinolin-7-yl)amino)-1H-pyrazolo[3,4-d]pyrimidin-1-yl)cyclohexyl)methanol]
< 0.1	CNC(=O)[C@H]1CC[C@@H](n2nc(C)c3cnc(Nc4cc5c(cc4OC)CCN(C)C5)nc32)CC1 [Example 52, (cis)-4-(6-((6-methoxy-2-methyl-1,2,3,4-tetrahydroisoquinolin-7-yl)amino)-3-methyl-1H-pyrazolo[3,4-d]pyrimidin-1-yl)-N-methylcyclohexane-1-carboxamide]
< 0.1	COc1cc2c(cc1Nc1ncc3cnn([C@H]4C[C@](C)(CO)C4)c3n1)CN(C)CC2 [Example 76, trans-[3-[6-[(6-methoxy-2-methyl-3,4-dihydro-1H-isoquinolin-7-yl)amino]pyrazolo[3,4-d]pyrimidin-1-yl]-1-methyl-cyclobutyl]methanol]
< 0.1	COc1cc2c(cc1Nc1ncc3cnn([C@H]4CCC[C@H](C(=O)N(C)C)C4)c3n1)CN(C)CC2 (racemic) [Example 59, rac-(trans)-3-(6-((6-methoxy-2-methyl-1,2,3,4-tetrahydroisoquinolin-7-yl)amino)-1H-pyrazolo[3,4-d]pyrimidin-1-yl)-N,N-dimethylcyclohexane-1-carboxamide]
< 0.1	COc1cc2c(cc1Nc1ncc3cnn([C@H]4C[C@H](CNS(=O)(=O)C5CC5)C4)c3n1)CN(C)CC2 [Example 123, N-[[3-[6-[(6-methoxy-2-methyl-3,4-dihydro-1H-isoquinolin-7-yl)amino]pyrazolo[3,4-d]pyrimidin-1-yl]cyclobutyl]methyl]cyclopropanesulfonamide]
< 0.1	COc1cc2c(cc1Nc1ncc3cnn(C[C@@H]4CCCN4C(C)=O)c3n1)C(C)(C)N(C)CC2 [Example 178, (S)-1-(2-((6-((6-methoxy-1,1,2-trimethyl-1,2,3,4-tetrahydroisoquinolin-7-yl)amino)-1H-pyrazolo[3,4-d]pyrimidin-1-yl)methyl)pyrrolidin-1-yl)ethan-1-one]
< 0.1	COCCS(=O)(=O)NC[C@H]1C[C@H](n2ncc3cnc(Nc4cc5c(cc4OC)CCN(C)C5)nc32)C1 [Example 124, 2-methoxy-N-(((1r,3r)-3-(6-((6-methoxy-2-methyl-1,2,3,4-tetrahydroisoquinolin-7-yl)amino)-1H-pyrazolo[3,4-d]pyrimidin-1-yl)cyclobutyl)methyl)ethane-1-sulfonamide]
< 0.1	COc1cc2c(cc1Nc1ncc3cnn(C[C@@H]4C[C@H]5C[C@H]5N4C(C)=O)c3n1)CN(C)CC2 [Example 215, 1-[(1R,3S,5R)-3-[[6-[(6-methoxy-2-methyl-3,4-dihydro-1H-isoquinolin-7-yl)amino]pyrazolo[3,4-d]pyrimidin-1-yl]methyl]-2-azabicyclo[3.1.0]hexan-2-yl]ethanone]
< 0.1	COc1cc2c(cc1Nc1ncc3cnn(C[C@@H]4CCC[C@H]4C(=O)O)c3n1)CN(C)CC2 [Example 157, (1R,2R)-2-[[6-[(6-methoxy-2-methyl-3,4-dihydro-1H-isoquinolin-7-yl)amino]pyrazolo[3,4-d]pyrimidin-1-yl]methyl]cyclopentanecarboxylic Acid]
< 0.1	COc1cc2c(cc1Nc1ncc3cnn([C@H]4CC[C@H](NS(C)(=O)=O)CC4)c3n1)CN(C)CC2 [Example 79, trans-N-[4-[6-[(6-methoxy-2-methyl-3,4-dihydro-1H-isoquinolin-7-yl)amino]pyrazolo[3,4-d]pyrimidin-1-yl]cyclohexyl]methanesulfonamide]
